Laboratory results reported in patent US20230212191A1, “SPIRO-SULFONIMIDAMIDE DERIVATIVES AS INHIBITORS OF MYELOID CELL LEUKEMIA-1 (MCL-1) PROTEIN” (PRELUDE THERAPEUTICS, INCORPORATED, priority 2020, published 2023).
Read-outs that look alike come from different tables or passages of the source.

How the values were obtained:
[1] = tested on: H929 cells; assay: Cell viability assay (H929 10 FBS); assay type: cell-based; conditions: CellTiter-Glo or ATPlite, read-out: H929_10FBS IC50
Experimental: Cell Viability Assay (H929 10 FBS)
Dispense 10 μL aliquot of prepared H929 cells (1:1 ratio of cells:Trypan Blue (#1450013, Bio-Rad)) onto cell counting slide (#145-0011, Bio-Rad) and obtain cell density and cell viability using cell counter (TC20, Bio-Rad). Remove appropriate volume of resuspended cells from culture flask to accommodate 4000 cells/well @ 10 μL/well. Transfer H929 cells to 50 mL conical (#430290, Corning). Spin down at 1000 rpm for 5 min using tabletop centrifuge (SPINCHRON 15, Beckman). Discard supernatant and resuspend cell pellet in modified RPMI 1640 (#10-040-CV, Corning) cell culture media containing 10% FBS (F2422-500 ML, Sigma), sodium pyruvate (100 mM) (#25-000-CL, Corning), HEPES buffer (1 M) (#25-060-CL, Corning) and glucose (200 g/L) (A24940-01, Gibco) to a cell density of 400,000 cells/mL. Dispense 10 μL of resuspended H929 cells per well in 384-well small volume TC treated plate (#784080, Greiner Bio-one) using standard cassette (#50950372, Thermo Scientific) on Multi-drop Combi (#5840310, Thermo Scientific) in laminar flow cabinet. Dispense compounds onto plates using digital liquid dispenser (D300E, Tecan). Incubate plates in humidified tissue culture incubator @ 37° C. for 24 hours. Add 10 μL of prepared CellTiTer-Glo® detection buffer (G7570, Promega) or ATPlite 1Step detection reagent (#6016731, Perkin Elmer) to each well of 384-well plate using small tube cassette (#24073295, Thermo Scientific) on Combi multi drop, incubate @ RT for 30-60 min. Read plates with microplate reader (PheraStar, BMG Labtech) using 384 well luminescence mode.

[2] = target: T1, MCL-1 (Homo sapiens, UniProt Q07820); assay: Cell free Mcl-1:Bim affinity assay (fluorescence polarization competition); assay type: binding; conditions: 15 nM MCL-1, 5 nM FITC-Bim tracer, 1 hour at room temperature; Ki calc. from IC50 by Nikolovska-Coleska's equation; read-out: BIM_ Ki
T1 construct: purchased BPS Bioscience
Experimental: Cell Free Mcl-1:Bim Affinity Assay (Mcl-1 Bim)
The binding affinity of each compound was measured via a fluorescence polarization competition assay, in which the compound competes for the same binding site with the ligand, and thus leads to a dose-dependent anisotropy reduction. The tracer ligand utilized was a fluorescein isothiocyanate labelled peptide (FITC-[…]) derived from Bim (GenScript).
The assay was carried out in black half-area 96-well NBS plate (Corning), containing 15 nM of MCL-1 (BPS Bioscience), 5 nM of FITC-Bim and 3-fold serial diluted test compounds in a total volume of 50 μL of assay buffer (20 mM HEPES, 50 mM NaCl, 0.002% Tween 20, 1 mM TCEP, and 1% DMSO). The reaction plate was incubated for 1 hour at room temperature. The change of anisotropy is measured with an Envision multimode plate reader (PerkinElmer) at emission wavelength 535 nm. Fluorescence polarization was calc. in mP unit and the percentage inhibition was calc. by % inhibition=100×(mPDMSO−mP)/(mPDMSO−mPPC), in which mPDMSO is the DMSO control, and mPPC is the positive control. IC50 values were determined from a 10-point dose response curve by fitting the percent inhibition against compound concentration using the GraphPad Prism software. The inhibition constant Ki was subsequently calc. according to the Nikolovska-Coleska's equation (Anal. Biochem., 2004, 332, 261),
where [I]50 is the concentration of the free inhibitor at 50% inhibition, [L]50 is the concentration of the free labeled ligand at 50% inhibition, [P]0 is the concentration of the free protein at 0% inhibition, and Kd is the dissociation constant of the protein-ligand complex.

T1 sequence (Q07820 whole entry): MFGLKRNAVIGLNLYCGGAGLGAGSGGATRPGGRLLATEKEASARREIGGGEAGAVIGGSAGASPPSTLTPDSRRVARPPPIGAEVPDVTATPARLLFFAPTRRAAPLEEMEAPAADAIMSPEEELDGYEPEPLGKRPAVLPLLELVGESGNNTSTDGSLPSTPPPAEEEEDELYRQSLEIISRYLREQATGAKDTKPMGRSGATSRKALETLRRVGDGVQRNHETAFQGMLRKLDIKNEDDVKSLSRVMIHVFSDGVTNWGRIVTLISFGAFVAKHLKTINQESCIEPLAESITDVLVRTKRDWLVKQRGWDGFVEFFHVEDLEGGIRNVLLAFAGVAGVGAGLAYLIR

| SMILES | IC50 ([1]; Homo sapiens, NCI-H929, 24 h) | Ki [2] | IC50 ([1]; 24 hours) |
| --- | --- | --- | --- |
| CO[C@H]1/C=C/COC(C)(C)C(=O)N=S(=O)(NC(=O)c2cnn(C)c2)c2ccc3c(c2)N(C[C@@H]2CC[C@H]21)C[C@@]1(CCCc2cc(Cl)ccc21)CO3 (stereo partly drawn) [Example 15, N-[(3R,6R,7S,8E,22S)-7′-Chloro-7-methoxy-12,12-dimethyl-13,15-dioxospiro[11,20-dioxa-15-thia-1,14-diazatetracyclo[14.7.2.03,6.019,24]pentacosa-8,14,16,18,24-pentaene-22,4′-2,3-dihydro-1H-naphthalene]-15-yl]-1-methylpyrazole-4-carboxamide] | < 100 nM | < 1 nM |  |
| CN(C)C(=O)O[C@H]1/C=C/COC(C)(C)C(=O)N=S(=O)(NC(=O)c2cnn(C)c2)c2ccc3c(c2)N(C[C@@H]2CC[C@H]21)C[C@@]1(CCCc2cc(Cl)ccc21)CO3 (stereo partly drawn) [Example 53, [(3R,6R,7S,8E,22S)-7′-Chloro-12,12-dimethyl-15-[(1-methylpyrazole-4-carbonyl)amino]-13,15-dioxospiro[11,20-dioxa-15-thia-1,14-diazatetracyclo[14.7.2.03,6.019,24]pentacosa-8,14,16,18,24-pentaene-22,4′-2,3-dihydro-1H-naphthalene]-7-yl] N,N-dimethylcarbamate] |  | < 1 nM |  |
| COC1C=CCOC(C)(C)C(=O)N=S(=O)(NC(=O)N2CC(O)C2)c2ccc3c(c2)N(CC2CCC21)CC1(CCCc2cc(Cl)ccc21)CO3 (centres unmarked) [30 or 29] |  | > 1 nM | > 500 nM |
| COc1nn(C)cc1C(=O)NS1(=O)=NC(=O)C(C)(C)OC/C=C/[C@H](OC)[C@@H]2CC[C@H]2CN2C[C@@]3(CCCc4cc(Cl)ccc43)COc3ccc1cc32 (stereo partly drawn) [Example 16, N-[(3R,6R,7S,8E,22S)-7′-Chloro-7-methoxy-12,12-dimethyl-13,15-dioxospiro[11,20-dioxa-15-thia-1,14-diazatetracyclo[14.7.2.03,6.019,24]pentacosa-8,14,16,18,24-pentaene-22,4′-2,3-dihydro-1H-naphthalene]-15-yl]-3-methoxy-1-methylpyrazole-4-carboxamide] | < 100 nM | < 1 nM |  |
| CO[C@H]1/C=C/COC(C)(C)C(=O)N=S(=O)(NC(=O)NC2CCOCC2)c2ccc3c(c2)N(C[C@@H]2CC[C@H]21)C[C@@]1(CCCc2cc(Cl)ccc21)CO3 (stereo partly drawn) [Example 38, 1-[(3R,6R,7S,8E,22S)-7′-Chloro-7-methoxy-12,12-dimethyl-13,15-dioxospiro[11,20-dioxa-15-thia-1,14-diazatetracyclo[14.7.2.03,6.019,24]pentacosa-8,14,16,18,24-pentaene-22,4′-2,3-dihydro-1H-naphthalene]-15-yl]-3-(oxan-4-yl)urea] |  | > 1 nM |  |
| COC1CN(C(=O)NS2(=O)=NC(=O)C(C)(C)OCC=CC(OC)C3CCC3CN3CC4(CCCc5cc(Cl)ccc54)COc4ccc2cc43)C1 (centres unmarked) [31 or 32] | < 100 nM | < 1 nM |  |
| CO[C@H]1/C=C/COC(C)(C)C(=O)N=S(=O)(NC(=O)C2CCOCC2)c2ccc3c(c2)N(C[C@@H]2CC[C@H]21)C[C@@]1(CCCc2cc(Cl)ccc21)CO3 (stereo partly drawn) [Example 11, N-[(3R,6R,7S,8E,22S)-7′-Chloro-7-methoxy-12,12-dimethyl-13,15-dioxospiro[11,20-dioxa-15-thia-1,14-diazatetracyclo[14.7.2.03,6.019,24]pentacosa-8,14,16,18,24-pentaene-22,4′-2,3-dihydro-1H-naphthalene]-15-yl]oxane-4-carboxamide] | < 100 nM | < 1 nM |  |
| CC(C)C(=O)NS1(=O)=NC(=O)C(C)(C)OC/C=C/[C@H](OCCN(C)C)[C@@H]2CC[C@H]2CN2C[C@@]3(CCCc4cc(Cl)ccc43)COc3ccc1cc32 (stereo partly drawn) [Example 55, N-[(3R,6R,7S,8E,22S)-7′-Chloro-7-[2-(dimethylamino)ethoxy]-12,12-dimethyl-13,15-dioxospiro[11,20-dioxa-15-thia-1,14-diazatetracyclo[14.7.2.03,6.019,24]pentacosa-8,14,16,18,24-pentaene-22,4′-2,3-dihydro-1H-naphthalene]-15-yl]-2-methylpropanamide] |  | > 1 nM |  |
| CO[C@H]1/C=C/COC(C)(C)C(=O)N=S(=O)(NC(=O)c2cn(C)nc2C)c2ccc3c(c2)N(C[C@@H]2CC[C@H]21)C[C@@]1(CCCc2cc(Cl)ccc21)CO3 (stereo partly drawn) [Example 17, N-[(3R,6R,7S,8E,22S)-7′-chloro-7-methoxy-12,12-dimethyl-13,15-dioxospiro[11,20-dioxa-15-thia-1,14-diazatetracyclo[14.7.2.03,6.019,24]pentacosa-8,14,16,18,24-pentaene-22,4′-2,3-dihydro-1H-naphthalene]-15-yl]-1,3-dimethylpyrazole-4-carboxamide] | < 100 nM | < 1 nM |  |
| Cc1nn(C)cc1C(=O)NS1(=O)=NC(=O)C(C)(C)OC/C=C/[C@H](OC(=O)N(C)C)[C@@H]2CC[C@H]2CN2C[C@@]3(CCCc4cc(Cl)ccc43)COc3ccc1cc32 (stereo partly drawn) [Example 51, [(3R,6R,7S,8E,22S)-7′-Chloro-15-[(1,3-dimethylpyrazole-4-carbonyl)amino]-12,12-dimethyl-13,15-dioxospiro[11,20-dioxa-15-thia-1,14-diazatetracyclo[14.7.2.03,6.019,24]pentacosa-8,14,16,18,24-pentaene-22,4′-2,3-dihydro-1H-naphthalene]-7-yl] N,N-dimethylcarbamate] |  | < 1 nM |  |
| Cn1cc(C(=O)NS2(=O)=NC(=O)C(C)(C)OC/C=C/[C@H](O)[C@@H]3CC[C@H]3CN3C[C@@]4(CCCc5cc(Cl)ccc54)COc4ccc2cc43)cn1 (stereo partly drawn) [Example 52, N-[(3R,6R,7S,8E,22S)-7′-Chloro-7-hydroxy-12,12-dimethyl-13,15-dioxospiro[11,20-dioxa-15-thia-1,14-diazatetracyclo[14.7.2.03,6.019,24]pentacosa-8,14,16,18,24-pentaene-22,4′-2,3-dihydro-1H-naphthalene]-15-yl]-1-methylpyrazole-4-carboxamide] |  | > 1 nM |  |
| CO[C@H]1/C=C/COC(C)(C)C(=O)N=S(=O)(NC(=O)c2cc(C)n(C)n2)c2ccc3c(c2)N(C[C@@H]2CC[C@H]21)C[C@@]1(CCCc2cc(Cl)ccc21)CO3 (stereo partly drawn) [Example 19, N-[(3R,6R,7S,8E,22S)-7′-Chloro-7-methoxy-12,12-dimethyl-13,15-dioxospiro[11,20-dioxa-15-thia-1,14-diazatetracyclo[14.7.2.03,6.019,24]pentacosa-8,14,16,18,24-pentaene-22,4′-2,3-dihydro-1H-naphthalene]-15-yl]-1,5-dimethylpyrazole-3-carboxamide] |  | < 1 nM |  |
| CC(C)C(=O)NS1(=O)=NC(=O)C(C)(C)OC/C=C/[C@H](OCCN2CCCC2)[C@@H]2CC[C@H]2CN2C[C@@]3(CCCc4cc(Cl)ccc43)COc3ccc1cc32 (stereo partly drawn) [Example 54, N-[(3R,6R,7S,8E,22S)-7′-Chloro-12,12-dimethyl-13,15-dioxo-7-(2-pyrrolidin-1-ylethoxy)spiro[11,20-dioxa-15-thia-1,14-diazatetracyclo[14.7.2.03,6.019,24]pentacosa-8,14,16,18,24-pentaene-22,4′-2,3-dihydro-1H-naphthalene]-15-yl]-2-methylpropanamide] |  | < 1 nM |  |
| CO[C@H]1/C=C/COC(C)(C)C(=O)N=S(=O)(NC(=O)c2cnn(C)c2C)c2ccc3c(c2)N(C[C@@H]2CC[C@H]21)C[C@@]1(CCCc2cc(Cl)ccc21)CO3 (stereo partly drawn) [Example 18, N-[(3R,6R,7S,8E,22S)-7′-Chloro-7-methoxy-12,12-dimethyl-13,15-dioxospiro[11,20-dioxa-15-thia-1,14-diazatetracyclo[14.7.2.03,6.019,24]pentacosa-8,14,16,18,24-pentaene-22,4′-2,3-dihydro-1H-naphthalene]-15-yl]-1,5-dimethylpyrazole-4-carboxamide] |  | < 1 nM |  |
